Measured values as given in patent US10132796B2, “Method for detecting and quantifying a target molecule in a tissue” (IMABIOTECH, priority 2011, dated 2018).

Test: Quantification of propranolol in a treated mouse kidney by MALDI mass spectrometry imaging
Assay type: in vivo
Settings: mouse treated with 7.5 mg/kg propranolol, sacrificed 20 minutes post-administration, kidney slices 20 μm, calibration curve from reconstituted kidney
Experimental: A mouse kidney treated with 7.5 mg/kg of propranolol, and sacrificed 20 minutes post-administration, is taken.
Three 20 μm thick tissue slices are produced from the kidney and are each deposited on a support (slide ITO).
MALDI DHB matrix (40 mg/ml methanol/TFA 0.1% 1/1) is sprayed using a robotized system (SunCollect) onto the slices.
Each slice is analysed by mass spectrometry imaging, using an Autoflex speed LRF (Bruker, Daltonics). The average intensity of the peaks of the mass spectrum of the propranolol (m/z 260.2) is computed, by once again using a number of ROIs on each slice, all dimensions being the same.
The average intensity value obtained is 19633.3.
The propranolol concentration in the kidney is quantified using the calibration curve equation (FIG. 2), by including the average intensity value obtained on said straight line. The propranolol here is in a concentration of 5.9 μg/g of tissue.

CC(C)NCC(O)COc1cccc2ccccc12 (stereo not shown) [propranolol]
propranolol concentration in the kidney: 5.9 μg/g of tissue
